{"source": "patent US11666630B2", "about": "“Polypeptides for managing viral infections” (priority 2016, dated 2023)", "key": {"DENV 1": {"system": "DENV 1", "assay": "FFA of DENV 1 incubated with peptide"}, "Clade A HIV": {"system": "Clade A HIV", "assay": "HIV inhibition, graded doses of peptide", "format": "cell-based", "conditions": "40 uM peptide", "procedure": "(§1) FIG. 10A. […] Clades A, B and C HIV viruses were exposed to graded doses (5 um-160 uM) of either Yodha peptide or control OVA peptide."}, "Clade C HIV": {"system": "Clade C HIV", "assay": "HIV inhibition, graded doses of peptide", "format": "cell-based", "conditions": "40 uM peptide", "procedure": "as §1"}, "Clade B HIV": {"system": "Clade B HIV", "assay": "HIV inhibition, graded doses of peptide", "format": "cell-based", "conditions": "40 uM peptide", "procedure": "as §1"}, "ZIKV (PRVABC59 strain)": {"system": "ZIKV (PRVABC59 strain)", "conditions": "for reduction of ZIKV: dose escalation, FFA; for activity of truncated and mutant Yodha peptides against ZIKV compared with parent peptide: FIG. 7E"}, "ZIKV (PRVABC59)": {"system": "ZIKV (PRVABC59)", "assay": "Immunofluorescence of ZIKV envelope in Vero cells", "format": "cell-based, Zika virus", "conditions": "ZIKV exposed to peptide before infection"}, "H1N1": {"system": "H1N1", "format": "cell-based, human influenza virus", "conditions": "incubated with virus at 37° C. for 1 hour, MDCK cells"}, "ZIKV [1]": {"system": "ZIKV", "assay": "Transmission electron microscopy of peptide-treated ZIKV", "conditions": "200 μM peptide, 10 min treatment"}, "DENV 2": {"system": "DENV 2", "assay": "FFA of DENV 2 incubated with peptide"}, "DENV 3": {"system": "DENV 3", "assay": "FFA of DENV 3 incubated with peptide"}, "H1N2": {"system": "H1N2", "format": "cell-based, influenza virus"}, "[2]": {"system": "Recombinant hemagglutinins from three H3 viruses", "format": "binding, influenza virus", "conditions": "biotinylated Yodha peptide, streptavidin PE detection"}, "[3]": {"system": "H7 avian influenza hemagglutinin", "format": "binding", "conditions": "biotinylated Yodha peptide, streptavidin PE detection"}, "[4]": {"system": "H5 avian influenza hemagglutinin", "format": "binding", "conditions": "biotinylated Yodha peptide, streptavidin PE detection"}, "[5]": {"system": "H2 avian influenza hemagglutinin", "format": "binding", "conditions": "biotinylated Yodha peptide, streptavidin PE detection"}, "ZIKV [6]": {"system": "ZIKV", "assay": "Peptide treatment of Vero cells already infected with ZIKV, FFU assay of culture supernatants", "format": "cell-based, Zika virus", "conditions": "for ZIKV in culture supernatant: 3 hours post-infection, peptide 40 μM"}, "influenza viruses": {"system": "influenza viruses", "format": "cell-based, influenza virus"}, "[7]": {"system": "H9 avian influenza hemagglutinin", "format": "binding", "conditions": "biotinylated Yodha peptide, streptavidin PE detection"}, "H3N2": {"system": "H3N2", "format": "cell-based, human influenza virus", "conditions": "incubated with virus at 37° C. for 1 hour, MDCK cells"}, "DENV 4": {"system": "DENV 4", "assay": "FFA of DENV 4 incubated with peptide"}, "PRVABC ZIKV": {"system": "PRVABC ZIKV", "assay": "ZIKV infection of anti-Ifnar1 mAb treated mice, viremia and viral burden by real time PCR"}, "H3N1": {"system": "H3N1", "format": "cell-based, influenza virus"}, "ZIKV [8]": {"system": "ZIKV", "assay": "ZIKV entry into Vero cells, viral RNA by qRT-PCR", "conditions": "ZIKV pre-incubated with 200 μM peptide"}}, "note": "pIC50: −log10 of the molar value. Entries after “also recorded” stand apart in the source; their conditions may differ. Where two headings read alike, the source gives them in different places. Peptide text beside a SMILES is read from it."}
{"compound": "CC[C@H](C)[C@H](NC(=O)[C@@H](NC(=O)CNC(=O)[C@H](CC(C)C)NC(=O)[C@H](Cc1ccccc1)NC(=O)[C@H](Cc1ccccc1)NC(=O)[C@H](CC(C)C)NC(=O)[C@H](CC(C)C)NC(=O)[C@H](CC(C)C)NC(=O)[C@H](CCSC)NC(=O)[C@@H](N)CO)[C@@H](C)O)C(=O)N[C@@H](CO)C(=O)N[C@@H](CC(C)C)C(=O)N[C@@H](CO)C(=O)N[C@@H](CC(C)C)C(=O)N[C@@H](CS)C(=O)N[C@@H](CCC(N)=O)C(=O)N[C@@H](CC(=O)O)C(=O)N[C@@H](CC(=O)O)C(=O)N[C@@H](CCC(N)=O)C(=O)N[C@@H](CCC(=O)O)C(=O)N[C@@H](CCCNC(=N)N)C(=O)N[C@@H](CS)C(=O)O", "note": "[Yodha peptide] (H-SMLLLFFLGTISLSLCQDDQERC-OH; N-terminus and C-terminus assumed)", "values": [{"measurement": "virucidal activity against DENV 1", "setting": "DENV 1", "result": "virucidal; also recorded: neutralizes"}, {"measurement": "neutralization of DENV 1", "setting": "DENV 1; 50 μM peptide", "result": "easily neutralized; also recorded: effective"}, {"measurement": "inhibition of clade A HIV", "setting": "Clade A HIV", "result": "efficiently inhibited"}, {"measurement": "inhibition of clade C HIV", "setting": "Clade C HIV", "result": "efficiently inhibited"}, {"measurement": "inhibition of clade B HIV", "setting": "Clade B HIV", "result": "efficiently inhibited"}, {"measurement": "time of exposure to virus within which the virus is neutralized", "setting": "ZIKV (PRVABC59 strain)", "result": "≤ 5", "unit": "min"}, {"measurement": "reduction of ZIKV", "setting": "ZIKV (PRVABC59 strain); 10 μM peptide", "result": 35, "unit": "%"}, {"measurement": "reduction of ZIKV", "setting": "ZIKV (PRVABC59 strain); 20 μM peptide", "result": 50, "unit": "%"}, {"measurement": "reduction of ZIKV", "setting": "ZIKV (PRVABC59 strain); 40 μM peptide", "result": 65, "unit": "%"}, {"measurement": "reduction of ZIKV", "setting": "ZIKV (PRVABC59 strain); 80 μM peptide", "result": 80, "unit": "%"}, {"measurement": "reduction of ZIKV", "setting": "ZIKV (PRVABC59 strain); 160 μM peptide", "result": 90, "unit": "%"}, {"measurement": "pIC50", "setting": "ZIKV (PRVABC59 strain); PRVABC59 strain, 2 h", "result": 4.70}, {"measurement": "expression of ZIKV envelope in Vero cells (immunofluorescence)", "setting": "ZIKV (PRVABC59)", "result": "decreased expression of ZIKV envelope"}, {"measurement": "virucidal activity against H1N1", "setting": "H1N1", "result": "virucidal; also recorded: neutralizes"}, {"measurement": "morphology of ZIKV particles (electron microscopy)", "setting": "ZIKV [1]", "result": "disruption of viral particles"}, {"measurement": "virucidal activity against DENV 2", "setting": "DENV 2", "result": "virucidal; also recorded: neutralizes"}, {"measurement": "neutralization of DENV 2", "setting": "DENV 2; 50 μM peptide", "result": "easily neutralized; also recorded: effective"}, {"measurement": "virucidal activity against DENV 3", "setting": "DENV 3", "result": "virucidal; also recorded: neutralizes"}, {"measurement": "dose needed for neutralization of DENV 3", "setting": "DENV 3; 50 μM versus 160 μM peptide", "result": "required higher dose"}, {"measurement": "virucidal activity against H1N2", "setting": "H1N2", "result": "virucidal"}, {"measurement": "binding to HA from H3 viruses", "setting": "[2]", "result": "binds"}, {"measurement": "binding to H7 hemagglutinin", "setting": "[3]", "result": "binds"}, {"measurement": "binding to H5 hemagglutinin", "setting": "[4]", "result": "binds"}, {"measurement": "binding to H2 hemagglutinin", "setting": "[5]", "result": "binds"}, {"measurement": "reduction in ZIKV production", "setting": "ZIKV [6]; 48 and 72 hours post-infection, peptide 40 μM added after infection", "result": "60-70%"}, {"measurement": "ZIKV in culture supernatant", "setting": "ZIKV [6]", "result": "not detected"}, {"measurement": "ZIKV titers in the supernatants", "setting": "ZIKV [6]; peptide 40 μM added after infection", "result": "significantly reduced"}, {"measurement": "activity against subtypes of influenza viruses", "setting": "influenza viruses", "result": "effective against all subtypes of influenza viruses; also recorded: effective against may subtypes of influenza viruses"}, {"measurement": "binding to H9 hemagglutinin", "setting": "[7]", "result": "binds"}, {"measurement": "virucidal activity against H3N2", "setting": "H3N2", "result": "virucidal; also recorded: neutralizes"}, {"measurement": "higher dose required to be effective against DENV 4", "setting": "DENV 4", "result": 160, "unit": "µM"}, {"measurement": "virucidal activity against DENV 4", "setting": "DENV 4", "result": "virucidal; also recorded: neutralizes"}, {"measurement": "neutralization of DENV 4", "setting": "DENV 4; 50 μM peptide", "result": "easily neutralized; also recorded: effective"}, {"measurement": "ZIKV viremia in serum", "setting": "PRVABC ZIKV; day 3 post-infection", "result": "reduces"}, {"measurement": "ZIKV viral burden in tissues", "setting": "PRVABC ZIKV; day 6, eye and spleen", "result": "reduces"}, {"measurement": "virucidal activity against H3N1", "setting": "H3N1", "result": "virucidal"}]}
{"compound": "PMLLLFFLGTISLSLCQDDQERC [S 1P Yodha]", "values": [{"measurement": "activity of truncated and mutant Yodha peptides against ZIKV compared with parent peptide", "setting": "ZIKV (PRVABC59 strain)", "result": "significantly more effective"}]}
{"compound": "SMLLLFFAGTISLSLCQDDQERC [peptide 8]", "values": [{"measurement": "virucidal activity of alanine-scanning mutants compared with Yodha peptide", "setting": "ZIKV (PRVABC59 strain); Yodha set as zero, FIG. 6B", "result": "statistically significant (p=0.02) antiviral activity than the parental peptide"}]}
{"compound": "OVA257-264 peptide (ESIINFEK; UniProt P01012 257-264, looked up, fragment) [OVA peptide, control peptide (Invivogen), reference compound]", "values": [{"measurement": "amount of ZIKV RNA detected versus virus-only samples", "setting": "ZIKV [8]", "result": "Comparable amounts"}, {"measurement": "expression of ZIKV envelope in Vero cells (immunofluorescence)", "setting": "ZIKV (PRVABC59)", "result": "no such effect"}, {"measurement": "morphology of ZIKV particles (electron microscopy)", "setting": "ZIKV [1]", "result": "intact virions"}, {"measurement": "ZIKV in culture supernatant", "setting": "ZIKV [6]", "result": "not detected"}]}
{"compound": "PMLLLFFLGTISLSLCQ [Short 12 peptide]", "values": [{"measurement": "activity of truncated and mutant Yodha peptides against ZIKV compared with parent peptide", "setting": "ZIKV (PRVABC59 strain)", "result": "significantly improved activity"}, {"measurement": "efficiency against DENV3 infection compared with full length Yodha peptide", "setting": "DENV 3; dose escalation", "result": "more efficient"}]}
{"compound": "PMLLLFFLGTISLSLCQEEERGA [Variant 12]", "values": [{"measurement": "effect against ZIKV relative to Yodha peptide", "setting": "ZIKV (PRVABC59 strain); FIG. 7C", "result": 1.6, "unit": "fold"}]}
{"compound": "SMLLLFFLGTISLSLCQ [short Yodha peptide]", "values": [{"measurement": "activity of truncated and mutant Yodha peptides against ZIKV compared with parent peptide", "setting": "ZIKV (PRVABC59 strain)", "result": "significantly improved activity"}]}
